According to patent publication US6388131B2, “Benzene compounds as antiproliferative and cholesterol lowering agents” (Tularik, Inc., priority 1997, dated 2002):

Key:
[1] = test system: HeLa cells; assay: Inhibition of in vitro growth of HeLa cells (Alamar Blue uptake); assay type: cell-based; conditions: Homo sapiens; concentration required to inhibit by 50% the uptake of Alamar Blue by HeLa cell cultures
From the text: Compounds and compositions of a particular embodiment of the invention display specific toxicity to various types of cells, preferably exerting their cytotoxic effects by interacting with cellular tubulin, preferably covalently and irreversibly. Compounds and compositions may be evaluated in vitro for their ability to inhibit cell grow, for example, as described by Ahmed et al. (J. Immunol. Methods 1994, 170, 211). […] Established animal models to evaluate antiproliferative effects of compounds are known in the art. For example, compounds can be evaluated for their ability to inhibit the growth of human tumors grafted into immunodeficient mice using methodology similar to that described by Rygaard and Poylsen (Acta Pathol. Microbiol. Scand. 1969, 77, 758) and Giovanella and Fogh (Adv. Cancer Res. 1985, 44, 69).
Compounds were evaluated for their ability to inhibit in vitro the growth of HeLa cells, an immortal cell line derived from a human cervical carcinoma commonly used to evaluate the cytotoxicity of potential therapeutic agents. The following data reflect the cytotoxicity of selected examples of the present invention. The values given represent the concentration of test compound required to inhibit by 50% the uptake of Alamar Blue (Biosource International, Camarillo, Calif.) by HeLA cell cultures, which correlates directly with the overall levels of cellular metabolism in the culture, and is generally accepted as an appropriate′marker of cell growth. The test was conducted according to the method of Ahmed et al. (J. Immunol. Methods 1994, 170, 211).

[2] = test system: LDL receptor expression in HepG2 cells; assay: Increase of LDL receptor expression in HepG2 cells, western-blot analysis; assay type: cell-based; conditions: Homo sapiens, minimum concentration at which a maximal induction of LDL receptor levels was observed
Description: Compounds and compositions of a particular embodiment of the invention are capable of specifically regulating LDL receptor gene expression. Compounds may be evaluated in vitro for their ability to increase LDL receptor expression using western-blot analysis, for example, as described by Tam et al. (J. Biol. Chem. 1991, 266, 16764). Preferred such compounds and compositions provide ECmax of less than about 50 μM, preferably less than about 5 μM, more preferably less than about 0.5 μM, more preferably less than about 0.05 μM, and most preferably less than about 0.005 μM in this assay (see, e.g. Example 28 herein). Established animal models to evaluate hypocholesterolemic effects of compounds are known in the art. For example, compounds disclosed herein are shown to lower cholesterol levels in hamsters fed a high-cholesterol diet, using a protocol simllar to that described by Spady et al. (J. Clin. Invest. 1988, 81, 300), Evans et al. (J. Lipid Res. 1994, 35, 1634), and Lin et al (J. Med. Chem. 1995, 38, 277).
Certain compounds were evaluated for their ability to increase LDL receptor expression in HepG2 cells using western-blot analysis as described by Tam et al., (J. Biol. Chem., 1991, 266, 16764). […] In all cases, the level of induction was greater than that observed under lipid-free conditions (activated system) in the absence of the test compounds.

Compound	IC50 [1] [nM]	EC (max) [2] [µM]
COc1ccc(NS(=O)(=O)c2cc(F)c(F)c(F)c2Br)cc1 [Example 11, 1-Bromo-4,5,6-trifluoro-2-[(4-methoxyphenyl)aminosulfonyl]benzene]	500	1.5
COc1ccc(NS(=O)(=O)c2cc(F)c(F)c(F)c2)cc1 [Example 22, 3,4,5-Trifluoro-1-[(4-methoxyphenyl)aminosulfonyl]benzene]	5000	5
COc1ccc(NS(=O)(=O)c2ccc(F)c([N+](=O)[O-])c2)cc1O [Example 2, 4-Fluoro-1-[(3-hydroxy-4-methoxyphenyl)aminosulfonyl]-3-nitrobenzene]	150	1.5
COc1ccc(NS(=O)(=O)c2cc(Br)c(F)c(F)c2F)cc1 [Example 10, 1-Bromo-2,3,4-trifluoro-5-[(4-methoxyphenyl)aminosulfonyl]benzene]	500	1.5
COc1ccc(NS(=O)(=O)c2ccc(F)c([N+](=O)[O-])c2)cc1 [Example 1, 4-Fluoro-1-[(4-methoxyphenyl)aminosulfonyl]-3-nitrobenzene]		5
COc1ccc(NS(=O)(=O)c2c(F)c(Cl)c(F)c(Cl)c2F)cc1 [Example 8, 1,3-Dichloro-2,4,6-trifluoro-5-[(4-methoxyphenyl)aminosulfony]benzene]	150	0.5
COc1ccc(CS(=O)(=O)c2c(F)c(F)c(F)c(F)c2F)cc1 [Example 24, 4-Methoxybenzyl Pentafluorophenyl Sulfone]	5000	1.5
COc1ccc(NS(=O)(=O)c2cc(F)c(F)c(F)c2F)cc1 [Example 20, 2,3,4,5-Tetrafluoro-1-[(4-methoxyphenyl)aminosulfonyl]benzene]	500	1.5

The next lines start with results.

IC50 [1] [nM]	Compound	EC (max) [2] [µM]
150	COc1ccc(NS(=O)(=O)c2c(F)c(F)c(F)c(Br)c2F)cc1 [Example 5]	0.5
50	COc1ccc(NS(=O)(=O)c2c(F)c(F)c(F)c(F)c2Br)cc1O [Example 3, 1-Bromo-3,4,5,6-tetrafluoro-2-[(3-hydroxy-4-methoxyphenyl)aminosulfonyl]benzene]	0.15
150	COc1ccc(NS(=O)(=O)c2c(F)c(F)c(F)c(F)c2Br)cc1 [Example 4, 1-Bromo-3,4,5,6-tetrafluoro-2-[(4-methoxyphenyl)aminosulfonyl]benzene]	0.5
1500	COc1ccc(NS(=O)(=O)c2ccc(F)c(F)c2F)cc1O [Example 17, 1-[(3-Hydroxy-4-methoxyphenyl)aminosulfonyl]-2,3,4-trifluorobenzene]	
1500	COc1ccc(NS(=O)(=O)c2cc(F)c(F)c(F)c2)cc1O [Example 23, 3,4,5-Trifluoro-1-[(3-hydroxy-4-methoxyphenyl)aminosulfonyl]benzene]	
5000	COc1ccc(NS(=O)(=O)c2c(F)cc(F)c(F)c2F)cc1 [Example 19, 2,3,4,6-Tetrafluoro-1-[(4-methoxyphenyl)aminosulfonyl]benzene]	15
1500	COc1ccc(NS(=O)(=O)c2c(F)c(F)c(Cl)c(F)c2F)cc1 [Example 7, 1-Chloro-2,3,5,6-tetrafluoro-4-[(4-methoxyphenyl)aminosulfonyl]benzene]	50
150	COc1ccc(NS(=O)(=O)c2cc(F)c(F)c(F)c2F)cc1O [Example 21, 2,3,4,5-Tetrafluoro-1-[(3-hydroxy-4-methoxyphenyl)aminosulfonyl]benzene]	0.5
50	COc1ccc(NS(=O)(=O)c2c(F)c(Cl)c(F)c(Cl)c2F)cc1O [Example 9, 1,3-Dichloro-2,4,6-trifluoro-5-[(3-hydroxy-4-methoxyphenyl)aminosulfonyl]benzene]	0.15
5000	COc1ccc(NS(=O)(=O)c2c(F)c(F)c(Br)c(F)c2F)cc1 [Example 6, 1-Bromo-2,3,5,6-tetrafluoro-4-[(4-methoxyphenyl)aminosulfonyl]benzene]	50
